# From patent publication US20250312329A1, “MODIFIED RELEASE NICORANDIL COMPOUND FORMULATIONS” (AUXILIUS PHARMA SPOLKA Z OGRANICZONA ODPOWIEDZIALNOSCIA, priority 2021, published 2025)
# Experiments:
# [1] = test system: patients with stable angina; conditions: cited from earlier work
# [2] = in vivo; cited from earlier work
# [3] = Loss of drying (LOD) of nicorandil/excipient powder blends; assay type: physicochemical; conditions: 1:1 excipient/API powder blend
# Description: To better understand the stability of nicorandil formulations according to the invention at an ingredient level, the following powder blend combinations were generated and analyzed: • NCD+HPMC • NCD+Starch • NCD+MCC • NCD+Magnesium stearate • NCD+Mannitol (not used in current formulation) • NCD only […]
# [4] = Excipient/API powder blend stability: impurities and NCD content initially and after storage; assay type: physicochemical
# Method: To better understand the stability of nicorandil formulations according to the invention at an ingredient level, the following powder blend combinations were generated and analyzed: • NCD+HPMC • NCD+Starch • NCD+MCC • NCD+Magnesium stearate • NCD+Mannitol (not used in current formulation) • NCD only […] These compositions were further analyzed (N=2) for impurities ([…]) and NCD content both initially and after 2 or 4 weeks of storage at accelerated stability testing conditions (40° C.) (per US FDA typical standards/procedures) or room temperature conditions (25° C.). Unknown impurities (“Unk. Imps.”) were also measured and the sum of all measured impurities (“Sum Imps.”) calculated.
smiles,measurement,setting,value
"O=C(NCCO[N+](=O)[O-])c1cccnc1 [Nicorandil, N-[2-(Nitro-oxy)ethyl]-3-pyridine carboxamide]","composite endpoint of coronary heart disease death, non-fatal MI or unplanned hospital admission with chest pain","[1]; IONA study, versus placebo, average 1.6 years",reduction in the composite endpoint
same,reduction in all-cause mortality,"[1]; JCAD study, average 2.7 years",35%
same,reduction in cardiac death,"[1]; JCAD study, average 2.7 years",56%
same,elimination half-life,[2],approximately 1 hour
same,LOD (%),[3],0.28%
same,Imp A,[4]; T = 0,0.00 Weight Percent
same,Imp B,[4]; T = 0,0.01 Weight Percent
same,Imp C,[4]; T = 0,0.01 Weight Percent
same,Imp D,[4]; T = 0,0.11 Weight Percent
same,Mass Balance,[4]; T = 0,98.60 Weight Percent
same,NCD,[4]; T = 0,98.40 Weight Percent
same,Sum Imps.,[4]; T = 0,0.20 Weight Percent
same,Unk. Imps.,[4]; T = 0,0.06 Weight Percent
same,Imp A,"[4]; T = 2 weeks, 40° C.",0.00 Weight Percent
same,Imp B,"[4]; T = 2 weeks, 40° C.",0.04 Weight Percent
same,Imp C,"[4]; T = 2 weeks, 40° C.",0.05 Weight Percent
same,Imp D,"[4]; T = 2 weeks, 40° C.",0.22 Weight Percent
same,Mass Balance,"[4]; T = 2 weeks, 40° C.",100.01 Weight Percent
same,NCD,"[4]; T = 2 weeks, 40° C.",99.52 Weight Percent
same,Sum Imps.,"[4]; T = 2 weeks, 40° C.",0.49 Weight Percent
same,Unk. Imps.,"[4]; T = 2 weeks, 40° C.",0.18 Weight Percent
same,Imp A,"[4]; T = 4 weeks, 25° C.",0.00 Weight Percent
same,Imp B,"[4]; T = 4 weeks, 25° C.",0.00 Weight Percent
same,Imp C,"[4]; T = 4 weeks, 25° C.",0.00 Weight Percent
same,Imp D,"[4]; T = 4 weeks, 25° C.",0.12 Weight Percent
same,Mass Balance,"[4]; T = 4 weeks, 25° C.",108.41 Weight Percent
same,NCD,"[4]; T = 4 weeks, 25° C.",108.13 Weight Percent
same,Sum Imps.,"[4]; T = 4 weeks, 25° C.",0.29 Weight Percent
same,Unk. Imps.,"[4]; T = 4 weeks, 25° C.",0.17 Weight Percent
